The test system of experiment [1] is Staphylococcus capitis (American Type Culture Collection number 35661). Put plainly: Minimal inhibitory concentration (MIC) against Staphylococcus capitis, two fold serial dilutions in 2xYT broth. In kind it is cell-based. The note with it: ATCC35661, Staphylococcus capitis ATCC 35661, 37° C., 18 hours, lowest drug concentration that inhibited visible growth, read-out: MIC (S. capitis). On the procedure:
(§1) Where MIC values are quoted for the compounds of the examples, those results were obtained by the method described in the Biological Example.
(§2) Minimal inhibitory concentrations (MIC) of inhibitors against E. coli strain DH5α (Genotype; F-φ80d/acZΔM 15Δ(lacZYA-argF)U 169 deoR recA1 endA1 hsdR17(rk^−, mk^+)phoA supE44λ^−thi-1 gyrA96 re/A1) obtained from GibcoBRL Life Technologies, or Staphylococcus capitis (American Type Culture Collection number 35661) were determined as follows. Stock solutions of each test compound were prepared by dissolution of the compound in dimethylsulfoxide at 10 mM. For the determination of the minimal inhibitory concentration, two fold serial dilutions were prepared in 2×YT broth (typtone 16 g/l, yeast extract 10 g/l, sodium chloride 5 g/l obtained from BIO 101 Inc, 1070 Joshua Way, Vista, Calif. 92083, USA) to yield 0.05 ml compound-containing medium per well. Inocula were prepared from cultures grown overnight in 2×YT broth at 37° C. Cell densities were adjusted to absorbance at 660 nm (a660)=0.1; the optical density-standardised preparations were diluted 1:1000 in 2×YT broth; and each well inoculated with 0.05 ml of the diluted bacteria. Microtiter plates were incubated at 37° C. for 18 hours in a humidified incubator. The MIC (μM) was recorded as the lowest drug concentration that inhibited visible growth.

In the next experiment the test system is E. coli strain DH5α. Put plainly: Minimal inhibitory concentration (MIC) against E. coli, two fold serial dilutions in 2xYT broth. It is filed as cell-based. The note with it: Escherichia coli, read-out: MIC (E. coli). On the procedure:
as §1, §2

[2] abbreviates: E. coli strain DH5α, 2xYT broth, 37° C., 18 hours, lowest drug concentration that inhibited visible growth.

Molecules are shown by their SMILES. ≈ marks a conversion by molar mass, not a printed value. Where two headings read alike, the source gives them in different places.

For 16 compounds, MIC results are on record in patent publication US6716878B1, “Antimicrobial agents” (Vernalis (Oxford) Limited, priority 1999, dated 2004).

Turning to `CCCC[C@H](CN(O)C=O)C(=O)N[C@H](C(=O)c1ccc(S(C)(=O)=O)cc1)C(C)(C)C` [Example 16, 2(R)-[(N-Formyl-N-hydroxyamino)-methyl]-hexanoic Acid [1′(S)-(4-methanesulfonyl-benzoyl)-2′,2′-dimethyl-propyl]amide], the MIC in experiment [1] was found to be 25 µM (≈ 11 µg/mL); in the experiment with E. coli strain DH5α (setting [2]), 6.25 µM (≈ 2.75 µg/mL).

With `COc1ccc(C(=O)[C@H](NC(=O)[C@@H](CC2CCCC2)CN(O)C=O)C(C)(C)C)cc1` [Example 17, 3-Cyclopentyl-2(S)-[(N-formyl-N-hydroxyamino)-methyl]-N-[1′(R)-(4-methoxybenzoyl)-2′,2′-dimethylpropyl]propionamide], the figures for the MIC (in experiment [1]; in the experiment on E. coli strain DH5α (setting [2])) were 25 µM (≈ 10.5 µg/mL) and 100 µM (≈ 41.9 µg/mL), respectively.

Turning to `CCCC[C@H](CN(O)C=O)C(=O)N[C@H](C(=O)c1ccco1)C(C)(C)C` [Example 18, 2(R)-[(N-Formyl-N-hydroxyamino)-methyl]-hexanoic Acid-(1′(S)-(furan-2-carbonyl)-2′,2′-dimethylpropyl)amide], the MIC (in experiment [1]; in the experiment on E. coli strain DH5α (setting [2])) was 12.5 µM (≈ 4.41 µg/mL) each time.

In the case of `CCCC[C@H](CN(O)C=O)C(=O)N[C@H](C(=O)c1cccn1C)C(C)(C)C` [Example 19, 2(R)-[(N-Formyl-N-hydroxyamino)-methyl]-hexanoic Acid-(2′,2′-dimethyl-1′(S)-(1-methyl-1H-pyrrole-2-carbonyl)-propyl)amide], the MIC (in experiment [1]; in the experiment on E. coli strain DH5α (setting [2])) was 12.5 µM (≈ 4.57 µg/mL) in each case.

Turning to `CCCC[C@H](CN(O)C=O)C(=O)N[C@H](C(=O)c1ccc(N)cc1)C(C)(C)C` [Example 20, 2(R)-[(N-Formyl-N-hydroxyamino)-methyl]-hexanoic Acid-(1′(S)-(4-aminobenzoyl)-2′,2′-dimethylpropyl)amide], the MIC was 12.5 µM (≈ 4.72 µg/mL) in experiment [1] and 6.25 µM (≈ 2.36 µg/mL) in the experiment with E. coli strain DH5α (setting [2]).

As for `CCCC[C@H](CN(O)C=O)C(=O)N[C@H](C(=O)c1ccc(NC(=O)C(F)(F)F)cc1)C(C)(C)C` [Example 21, 2(R)-[(N-Formyl-N-hydroxyamino)-methyl]-hexanoic Acid-(2′,2′-dimethyl-1′(S)-[4-(2,2,2-trifluoroacetylamino)-benzoyl]-propyl)amide], the minimum inhibitory concentration (MIC) (in experiment [1]; with E. coli strain DH5α (18 h)) was 6.25 µM (≈ 2.96 µg/mL) in each case.

With `CCCC[C@H](CN(O)C=O)C(=O)N[C@H](C(=O)c1ccc(NC(C)=O)cc1)C(C)(C)C` [Example 22, 2(R)-[(N-Formyl-N-hydroxyamino)-methyl]-hexanoic Acid-(1′(S)-(4-acetylaminobenzoyl)-2′,2′-dimethylpropyl)amide], the MIC in experiment [1] turned out to be 3.1 µM (≈ 1.3 µg/mL); with E. coli strain DH5α (setting [2]) it was 12.5 µM (≈ 5.24 µg/mL).

As for `CCCC[C@H](CN(O)C=O)C(=O)N[C@H](C(=O)c1ccc(NS(C)(=O)=O)cc1)C(C)(C)C` [Example 23, 2(R)-[(N-Formyl-N-hydroxyamino)-methyl]-hexanoic Acid-(1′(S)-(4-methanesulfonylaminobenzoyl)-2′,2′-dimethylpropyl)amide], the minimum inhibitory concentration (MIC) in experiment [1] stood at 3.1 µM (≈ 1.41 µg/mL); in the experiment on E. coli strain DH5α (setting [2]), 50 µM (≈ 22.8 µg/mL).

As for `CCCC[C@H](CN(O)C=O)C(=O)N[C@H](C(=O)c1ccc(N2CCOCC2)cc1)C(C)(C)C` [Example 24, 2(R)-[(N-Formyl-N-hydroxyamino)-methyl]-hexanoic Acid-(2′,2′-dimethyl-1′(S)-(4-morpholin-4-ylbenzoyl)-propyl)amide], the values for the MIC (in experiment [1]; in the experiment with E. coli strain DH5α (setting [2])) were 3.1 µM (≈ 1.39 µg/mL) and 6.25 µM (≈ 2.8 µg/mL), respectively.

As to `CCCC[C@H](CN(O)C=O)C(=O)N[C@H](C(=O)c1ccc(N2CCN(Cc3ccccc3)CC2)cc1)C(C)(C)C` [Example 25, 2(R)-[(N-Formyl-N-hydroxyamino)-methyl]-hexanoic Acid-(1′(S)-[4-(4-benzylpiperazin-1-yl)-benzoyl]-2′,2′-dimethylpropyl)amide], the values for the minimal inhibitory concentration (MIC) (in experiment [1]; in the experiment with E. coli strain DH5α (setting [2])) were 3.1 µM (≈ 1.66 µg/mL) and 50 µM (≈ 26.8 µg/mL), respectively.

As for `CCCC[C@H](CN(O)C=O)C(=O)N[C@H](C(=O)c1ccc(N2CCNCC2)cc1)C(C)(C)C` [Example 26, 2(R)-[(N-Formyl-N-hydroxyamino)-methyl]-hexanoic Acid-(2′,2′-dimethyl-1′(S)-(4-piperazin-1-yl-benzoyl)-propyl)amide], the minimum inhibitory concentration (MIC) in experiment [1] worked out at 12.5 µM (≈ 5.58 µg/mL); with E. coli strain DH5α (setting [2]) it was 3.1 µM (≈ 1.38 µg/mL).

Consider `CCCC[C@H](CN(O)C=O)C(=O)N[C@H](C(=O)c1ccc(N2CCN(C)CC2)cc1)C(C)(C)C` [Example 27, 2(R)-[(N-Formyl-N-hydroxyamino)-methyl]-hexanoic Acid-(2′,2′-dimethyl-1′(S)-[4-(4-methylpiperazin-1-yl)benzoyl]-propyl)amide], for which the minimum inhibitory concentration (MIC) (in experiment [1]; with E. coli strain DH5α (setting [2])) was 6.25 µM (≈ 2.88 µg/mL) in each case.

For the compound `CCCC[C@H](CN(O)C=O)C(=O)N[C@H](C(=O)c1ccc(N2CCN(c3ncccn3)CC2)cc1)C(C)(C)C` [Example 28, 2(R)-[(N-Formyl-N-hydroxyamino)-methyl]-hexanoic Acid-(2′,2′-dimethyl-1′(S)-[4-(4-pyrimidin-2-yl-piperazin-1-yl)-benzoyl]-propyl)amide], the minimum inhibitory concentration (MIC) came out at 1.6 µM (≈ 0.839 µg/mL) in experiment [1] and 12.5 µM (≈ 6.56 µg/mL) with E. coli strain DH5α (setting [2]).

Turning to `CCCC[C@H](CN(O)C=O)C(=O)N[C@H](C(=O)c1ccc(N2CCN(C3=NCCCN3)CC2)cc1)C(C)(C)C` [Example 29, 2(R)-[(N-Formyl-N-hydroxyamino)-methyl]-hexanoic Acid-(2′,2′-dimethyl-1′(S)-{4-[4-(1,4,5,6-tetrahydropyrimidin-2-yl)-piperazin-1-yl]-benzoyl}-propyl)amide], the minimal inhibitory concentration (MIC) in experiment [1] amounted to 6.25 µM (≈ 3.3 µg/mL); in the experiment with E. coli strain DH5α (setting [2]), 50 µM (≈ 26.4 µg/mL).

With `CCCC[C@H](CN(O)C=O)C(=O)N[C@H](C(=O)c1ccc(N(CCC)CCC)cc1)C(C)(C)C` [Example 30, 2(R)-[(N-Formyl-N-hydroxyamino)-methyl]-hexanoic Acid-(1′(S)-(4-dipropylaminobenzoyl)-2′,2′-dimethylpropyl)amide], the minimum inhibitory concentration (MIC) was 3.1 µM (≈ 1.43 µg/mL) in experiment [1] and 100 µM (≈ 46.2 µg/mL) in the experiment on E. coli strain DH5α (setting [2]).

With `CCCC[C@H](CN(O)C=O)C(=O)N[C@H](C(=O)c1ccc(NCCC)cc1)C(C)(C)C` [Example 31, 2(R)-[(N-Formyl-N-hydroxyamino)-methyl]-hexanoic Acid-(2′,2′-dimethyl-1′(S)-(4-propylaminobenzoyl)-propyl)amide], the minimum inhibitory concentration (MIC) is 3.1 µM (≈ 1.3 µg/mL) in experiment [1] and 12.5 µM (≈ 5.24 µg/mL) with E. coli strain DH5α (setting [2]).
